{"source": "patent US11040949B2", "about": "“Compounds affecting pigment production and methods for treatment of bacterial diseases” (Versitech Limited, priority 2017, dated 2021)", "key": {"[1]": {"molecular_target": "4,4-diapophytoene desaturase (CrtN) (Staphylococcus aureus, UniProt O07855)", "sequence (O07855 whole entry)": "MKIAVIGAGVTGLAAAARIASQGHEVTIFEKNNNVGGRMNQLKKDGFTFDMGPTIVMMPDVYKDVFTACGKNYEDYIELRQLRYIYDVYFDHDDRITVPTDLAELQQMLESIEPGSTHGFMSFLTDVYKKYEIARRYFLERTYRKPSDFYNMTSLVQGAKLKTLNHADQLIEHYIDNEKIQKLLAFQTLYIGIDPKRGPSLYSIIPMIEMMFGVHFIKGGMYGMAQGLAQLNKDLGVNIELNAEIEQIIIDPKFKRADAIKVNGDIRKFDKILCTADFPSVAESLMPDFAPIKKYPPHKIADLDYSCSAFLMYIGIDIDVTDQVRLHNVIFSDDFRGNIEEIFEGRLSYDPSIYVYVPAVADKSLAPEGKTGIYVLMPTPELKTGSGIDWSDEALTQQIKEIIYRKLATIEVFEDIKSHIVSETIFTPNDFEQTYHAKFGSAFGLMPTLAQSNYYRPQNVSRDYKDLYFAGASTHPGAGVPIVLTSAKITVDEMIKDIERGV", "details": "reference [5]; cited from earlier work"}, "[2]": {"system": "methicillin-resistant S. aureus (MRSA)", "experiment": "MRSA skin infection, wound closure", "type": "in vivo, mice", "details": "Day 7", "procedure": "FIG. 11B are photos from the top view of mice with skin infection caused by MRSA before (at Day 0) and after different treatments (at Day 7): top left received 2% mupirocin via topical BID for 7 days; top right received 100 mg/kg linezolid via oral BID for 7 days; bottom received 30 mg/kg IM032 via oral BID for 7 days.\nVisual wound healing/closure in different treatment groups of mice can be observed in FIG. 11B."}, "[3]": {"system": "clinical isolate S. aureus strain AE052", "experiment": "Murine intraperitoneal infection model, kidney bacterial loads", "type": "in vivo, BALB/c mice", "procedure": "(§1) For other S. aureus sub-type, eight- to ten-week-old female BALB/c mice were injected intraperitoneally (i.p) with 4×10^8 CFUs of early stationary phase S. aureus COL. After 3 d, animals were euthanized, the liver and spleen were isolated, homogenized in PBS, and plated on to obtain viable counts. For the treatment study, mice were randomized into two groups at the start of the experiment and administered, i.p., either 0.35 mg of NP16 or PBS with 5% Tween-80 as a control, twice per day, starting on d −1 to d 2 (a total of eight doses for each). Intraperitoneal challenge with 4×10^8 CFUs of early stationary phases S. aureus COL was performed on d 0. The mice were sacrificed on d 3 for enumeration of bacterial CFUs in liver and spleen homogenates.\nFor the clinical isolate S. aureus strain AE052, all operations were similar to those used for the COL strain, except 10^8 CFUs of early stationary phase bacteria were used in the infection model, and kidneys were collected for monitoring bacterial loads. Statistics were performed using the Student's t-test (GraphPad Prism).\n(§2) With the same intraperitoneal challenge used in FIGS. 3a, 3b and 3e, one group of mice (n=14) was treated with 0.35 mg of NP16 twice per day (days −1, 0, 1 and 2), and a second group (n=12) with a vehicle control."}, "S. aureus USA300": {"system": "S. aureus USA300", "experiment": "In vitro staphyloxanthin production inhibition by NP-16 analogues", "type": "cell-based, Staphylococcus aureus", "details": "S. aureus USA300, methanol extract OD 450 nm, 300 nM to 700 nM", "procedure": "Evaluation of NP-16 analogues in Staphyloxanthin production\nThe in vitro pigment inhibition studies were performed by S. aureus USA300 cultured in BHI with or without the presence of inhibitor compounds at 37° C. and 250 rpm for 36-48 hours. The bacteria were washed twice with PBS prior to the staphyloxanthin purification with methanol. The OD of the extracts were monitor at 450 nm using DTX880 multi-plate reader spectrophotometer (Beckman). The concentration range tested for the compounds were between 300 nM to 700 nM, and control groups were added with equal volume of DMSO.\nThe cytotoxicity of NP-16 and some of its analogues was tested against Raw 264.7 cells, and the cell tolerance of each compounds were documented in Table 3. Along with the in vitro staphyloxanthin production of the NP-16 analogues were being tested, the compounds can exert staphyloxanthin production inhibition. The staphyloxanthin from the overnight-cultured bacteria were extracted with methanol and quantified in via spectrophotometry. The results were presented in relative ratio to NP-16 in both the inhibition ratio as well as the TC50 (concentration for decreasing cell viability by 50%) in Table 3 (sample names correspond to those listed in Table 1)."}, "[4]": {"molecular_target": "T1, 4,4-diapophytoene desaturase (CrtN) (Staphylococcus aureus, UniProt Q99R76)", "T1 construct": "made in house; host or cells: E. coli Rosetta (DE3)", "T1 sequence (Q99R76 whole entry)": "as the sequence (O07855 whole entry) above", "experiment": "CrtN enzymatic assay", "type": "biochemical, S. aureus", "procedure": "crtN Expression, Purification and Enzymatic Assay\nCrtN with a histidine-maltose binding protein (MBP) tag was overexpressed in E. coli Rosetta (DE3) cells. A 10 ml overnight culture was transferred into 1 L of LB medium supplemented with 100 μg/ml ampicillin. Induction was carried out with 1 mM IPTG for 12 hours at 16° C. at an OD of 0.6 at 600 nm. The cell lysate was loaded onto a Ni-NTA column, and CrtN was eluted using a 75-ml linear gradient of 0-0.4 M imidazole in 50 mM sodium phosphate buffer, with 400 mM sodium chloride, pH 6.6. The collected fractions were analysed by SDS-PAGE to confirm the peak for MBP-CrtN. The target peak fractions were concentrated and the buffer was exchanged to loading buffer without imidazole using a PD-10 column (GE Healthcare). The collected solution was treated with TEV protease at 4° C. overnight. The protein sample was applied to a maltose column, and the flow-through was collected as native CrtN protein. For enzyme assay, 10 μg of purified CrtN was incubated with 100 μl of 4,4′-diapophytoene liposomes (containing 5 nmol of 4,4′-diapophytoene), 150 μM FAD and buffer II (20 mM phosphate buffer pH 8.0, 100 mM NaCl) in a total volume of 660 μl at 37° C. for 2 h (standard assay). The reaction was stopped by adding 1 volume of CHCl3: MeOH (2:1, v/v). Followed by mixing, the sample was centrifuged at 16,000 g for 10 min. […]"}, "S. aureus COL [5]": {"system": "S. aureus COL", "experiment": "Hydrogen peroxide susceptibility assay", "type": "cell-based, Staphylococcus aureus", "details": "grown with NP16 (40 μM); 440 mM H2O2, 1 hr", "procedure": "(§3) Hydrogen Peroxide Susceptibility Assay\n(§4) S. aureus was grown in BHI with or without NP16 (40 μM). After 2 days, bacteria were washed twice in PBS, diluted to a concentration of 1×10^7 CFUs per 100 μl reaction mixture in a 96-well plate. Hydrogen peroxide (H2O2) in PBS was added to a 440 mM final concentration, and the plate was incubated for 1 hr at 37° C. with shaking. The reaction was stopped by the addition of 1,000 U/ml of exogenous catalase (Sigma-Aldrich, St. Louis, Mo.), and bacterial viability was assessed by plating dilutions on BHI agar plates."}, "[6]": {"system": "non-pigmented strain RN6390", "experiment": "Hydrogen peroxide susceptibility assay, non-pigmented strain", "type": "cell-based, Staphylococcus aureus", "details": "non-pigmented strain RN6390, with or without NP16", "procedure": "as §3, §4"}, "S. aureus COL [7]": {"system": "S. aureus COL", "experiment": "Murine intraperitoneal infection model, liver and spleen CFUs", "type": "in vivo, BALB/c mice", "procedure": "as §1, §2"}, "USA300": {"system": "USA300", "experiment": "Minimum inhibitory concentration (MIC) test", "type": "cell-based", "details": "Staphylococcus aureus", "procedure": "Minimum Inhibitory Concentration (MIC) Tests\nMIC was determined by inoculating 5×10^4 S. aureus cells in 100 μl BHI medium in 96-well plates with a serial dilution of antibiotics."}, "MDCK cells": {"system": "MDCK cells", "experiment": "Cytotoxic activity on MDCK cells", "type": "cell-based"}, "S. aureus COL [8]": {"system": "S. aureus COL", "experiment": "Bactericidal activity of human polymorphonuclear leukocytes", "type": "cell-based, Staphylococcus aureus", "details": "NP16-treated COL vs COL", "procedure": "Bactericidal Activity of Polymorphonuclear Leukocytes\nThe killing of S. aureus by human polymorphonuclear leukocytes (PMNs) was determined as previously described, with some modifications. Briefly, PMNs (10^6) were mixed with ˜10^7 opsonized S. aureus bacteria MOI=10 in 24-well tissue culture plates. After centrifuged at 380 g for 8 min, plates were incubated at 37° C. for up to 1.5 h. PMNs were lysed with saponin (20 min on ice) and plated on BHIA plates. The percent survival was calculated by normalized with time zero. Statistics were performed with the Student's t-test (GraphPad Prism)."}, "[9]": {"experiment": "Solubility in simulated gastric and intestinal fluids", "type": "physicochemical", "excerpt": "The following table (Table 4) illustrates the solubility of two different compounds, NP16-XL-016 (hereinafter as “IM032”) and NP16-XL-061 (hereinafter as “IM032-C”), in two solutions with different pH values simulating the pH of gastric juice and human intestinal fluid using HCl and phosphate buffer respectively."}, "[10]": {"experiment": "Solubility in commonly used solvents for oral administration", "type": "physicochemical"}}, "data": [{"smiles": "c1ccc(Nc2ccccc2)cc1", "note": "[Diphenylamine]", "values": [{"measurement": "inhibitor of CrtN, level", "setting": "[1]", "value": "high micromolar level"}]}, {"smiles": "CC(=O)NC[C@H]1CN(c2ccc(N3CCOCC3)c(F)c2)C(=O)O1", "note": "[Linezolid, linezolid, reference compound]", "values": [{"measurement": "percentage of wound closure", "setting": "[2]; 100 mg/kg oral twice a day", "value": 48.4, "unit": "%"}]}, {"smiles": "C/C(=C\\C(=O)OCCCCCCCCC(=O)O)C[C@@H]1OC[C@H](C[C@@H]2O[C@H]2[C@@H](C)[C@H](C)O)[C@@H](O)[C@H]1O", "note": "[Mupirocin, mupirocin, reference compound]", "values": [{"measurement": "percentage of wound closure", "setting": "[2]; 2% topical twice a day", "value": 43.2, "unit": "%"}]}, {"smiles": "O=C(/C=C/c1ccccc1)Nc1ccc(S(=O)(=O)N2CCCC2)cc1", "note": "[NP16, 3-phenyl-N-[4-(1-pyrrolidinylsulfonyl)-phenyl]acrylamide]", "values": [{"measurement": "bacterial counts in the kidneys", "setting": "[3]; 0.35 mg twice per day i.p., 72 hours, vs control group, P<0.001", "value": "significantly lower"}, {"measurement": "mice below the detection threshold (kidneys)", "setting": "[3]; n=10, versus 2 of 10 in the control group", "value": "6 of 10"}, {"measurement": "decrease in surviving bacteria", "setting": "[3]; treatment group infected with AE052", "value": 98, "unit": "%"}, {"measurement": "Relative ratio to NP16 based on inhibition ratio", "setting": "S. aureus USA300", "value": 1}, {"measurement": "inhibition of CrtN", "setting": "[4]", "value": "inhibitor for CrtN"}, {"measurement": "susceptibility to hydrogen peroxide killing", "setting": "S. aureus COL [5]", "value": "increase in the susceptibility of the pathogen to hydrogen peroxide killing"}, {"measurement": "susceptibility to hydrogen peroxide killing", "setting": "[6]", "value": "susceptibility was similar irrespective of NP16 treatment"}, {"measurement": "bacterial counts in the livers and spleens", "setting": "S. aureus COL [7]; 0.35 mg twice per day i.p. (days -1, 0, 1, 2), 72 hours, vs control group, P<0.01", "value": "significantly lower"}, {"measurement": "decrease in surviving bacteria", "setting": "S. aureus COL [7]; treatment group infected with COL", "value": 98, "unit": "%"}, {"measurement": "MIC", "setting": "USA300", "value": "> 500", "unit": "µM"}, {"measurement": "effect on the growth of MDCK cells", "setting": "MDCK cells", "value": "no effect on the growth of MDCK cells"}, {"measurement": "survival in human neutrophils", "setting": "S. aureus COL [8]", "value": "COL survived significantly better than RN6390 and NP16-treated COL"}]}, {"smiles": "O=C(Nc1ccc(S(=O)(=O)N2CCCCC2)cc1)c1ncoc1-c1ccccc1", "note": "[NP16-XL-057, 4-(5-phenyl-1,3-oxazole)-N-[4-(1-piperidine-1-sulfonyl)phenyl]-amide]", "values": [{"measurement": "Relative ratio to NP16 based on inhibition ratio", "setting": "S. aureus USA300", "value": 0.14}]}, {"smiles": "O=C(/C=C/c1c(Br)cccc1Br)Nc1ccc(S(=O)(=O)N2CCCCC2)cc1", "note": "[NP16-XL-058, 3-(2,6-dibromo-phenyl)-N-[4-(1-piperidine-1-sulfonyl)phenyl]-acrylamide]", "values": [{"measurement": "Relative ratio to NP16 based on inhibition ratio", "setting": "S. aureus USA300", "value": 0.16}]}, {"smiles": "N#Cc1ccc(-c2cc(C(=O)Nc3ccc(S(=O)(=O)N4CCCCC4)cc3)no2)cc1", "note": "[NP16-XL-059, 4-[2-(4-cyano-phenyl)-1,5-oxazole]-N-[4-(1-piperidine-1-sulfonyl)phenyl]-amide]", "values": [{"measurement": "Relative ratio to NP16 based on inhibition ratio", "setting": "S. aureus USA300", "value": 0.06}]}, {"smiles": "O=C(Nc1ccc(S(=O)(=O)N2CCCCC2)cc1)c1cc(-c2cccs2)on1", "note": "[NP16-XL-060, 4-[2-(thiophen-5-yl)-1,5-oxazole]-N-[4-(1-piperidine-1-sulfonyl)phenyl]-amide]", "values": [{"measurement": "Relative ratio to NP16 based on inhibition ratio", "setting": "S. aureus USA300", "value": 0.06}]}, {"smiles": "O=C(/C=C/c1ccccc1Cl)Nc1ccc(S(=O)(=O)N2CCCCC2)cc1", "note": "[NP16-XL-061, 3-(6-chlorophenyl)-N-[4-(1-piperidine-1-sulfonyl)phenyl]-acrylamide]", "values": [{"measurement": "Solubility in pH 2 (0.1N HCl + 0.1% Tween 80)-simulating human stomach", "setting": "[9]; pH 2", "value": "<LOQ"}, {"measurement": "solubility", "setting": "[9]; pH 7.4, aqueous with cosolvent or surfactant or cyclodextrin, read-out: Solubility in pH 7.4 (KH2PO4 + 0.1% Tween 80)-simulating human intestine", "value": 0.0856, "unit": "µg/mL"}, {"measurement": "solubility", "setting": "[10]; 1:1 Labrasol ALF/PEG300, organic solvent or mixture", "value": 6340, "unit": "µg/mL"}, {"measurement": "solubility", "setting": "[10]; 1:1 Labrasol ALF/PEG400, organic solvent or mixture", "value": 7600, "unit": "µg/mL"}, {"measurement": "solubility", "setting": "[10]; Labrasol ALF, oil or lipid", "value": 6080, "unit": "µg/mL"}, {"measurement": "solubility", "setting": "[10]; PEG300, organic solvent or mixture", "value": 7150, "unit": "µg/mL"}, {"measurement": "solubility", "setting": "[10]; PEG400, organic solvent or mixture", "value": 6940, "unit": "µg/mL"}]}]}
